Columns and labels:
Format in all cases: cell-based
[1] = system: H3122 cell line (NSCLC, EML4-ALK fusion); assay: Ceritinib sensitivity (IC50) of parental H3122 cell line; conditions: Homo sapiens, NCI-H3122; ALK-positive H3122 parental cell line
Procedure: (§1) In the particular study reported here, resistance to the small molecule ALK inhibitor Ceritinib was studied. The patient-derived cell line H3122 is a NSCLC line with an EML4-ALK fusion, and it is sensitive to Ceritinib. To simulate the clinical development of therapeutic resistance following initial treatment, this cell line was cultured over a period of 6 months with low but increasing doses of Ceritinib. […] These clones were expanded and comprise the cell lines LDKR1-4.
(§2) FIG. 5 is a schematic diagram showing the development of the cell lines. The ALK-positive H3122 cell line, which is sensitive to the ALK inhibitor Ceritinib (ICso=53 nM), was treated with escalating doses of Ceritinib over a period 6 months. Resistant clones LDKR1-4 were obtained with ICso values in a range from 1494 nM to 3897 nM.

[2] = system: LDKR1-4 cell lines (Ceritinib-resistant clones of H3122); assay: Ceritinib sensitivity (IC50) of resistant clones LDKR1-4
Procedure: as §1, §2

ALK [3] = biological target: T1, ALK (Homo sapiens, UniProt Q9UM73); assay: Phosphoproteomic analysis of ALK phosphorylation after Ceritinib treatment, parental H3122; conditions: 300 nM Ceritinib, 24 hours
T1 sequence (Q9UM73 with tags, fused parts or gaps): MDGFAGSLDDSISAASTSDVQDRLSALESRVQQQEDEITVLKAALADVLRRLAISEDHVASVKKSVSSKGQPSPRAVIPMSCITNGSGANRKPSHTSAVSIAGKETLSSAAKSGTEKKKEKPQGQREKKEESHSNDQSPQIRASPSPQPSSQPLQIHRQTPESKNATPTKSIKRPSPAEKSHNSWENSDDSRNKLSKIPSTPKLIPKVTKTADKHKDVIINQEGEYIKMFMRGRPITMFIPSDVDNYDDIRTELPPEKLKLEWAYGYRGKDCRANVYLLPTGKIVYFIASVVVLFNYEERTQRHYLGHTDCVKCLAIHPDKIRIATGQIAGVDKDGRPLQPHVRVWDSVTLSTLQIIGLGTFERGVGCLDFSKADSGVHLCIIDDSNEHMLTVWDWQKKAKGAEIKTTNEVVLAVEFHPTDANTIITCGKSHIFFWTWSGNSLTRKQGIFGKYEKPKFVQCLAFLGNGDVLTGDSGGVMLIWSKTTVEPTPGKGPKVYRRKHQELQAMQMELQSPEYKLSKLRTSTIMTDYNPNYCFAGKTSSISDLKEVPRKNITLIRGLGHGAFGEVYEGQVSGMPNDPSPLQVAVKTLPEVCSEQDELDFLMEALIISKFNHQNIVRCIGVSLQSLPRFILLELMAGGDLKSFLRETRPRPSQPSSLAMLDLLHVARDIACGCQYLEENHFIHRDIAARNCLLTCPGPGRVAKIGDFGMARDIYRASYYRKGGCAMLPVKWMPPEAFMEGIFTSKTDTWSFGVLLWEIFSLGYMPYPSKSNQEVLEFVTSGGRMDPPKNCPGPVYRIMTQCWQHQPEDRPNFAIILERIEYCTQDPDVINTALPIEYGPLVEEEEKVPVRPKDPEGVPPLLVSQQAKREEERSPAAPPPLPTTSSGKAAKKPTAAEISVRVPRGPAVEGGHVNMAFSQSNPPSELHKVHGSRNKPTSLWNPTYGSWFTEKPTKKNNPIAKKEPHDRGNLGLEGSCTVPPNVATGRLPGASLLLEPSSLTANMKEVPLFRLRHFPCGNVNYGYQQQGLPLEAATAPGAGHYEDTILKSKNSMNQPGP
Procedure: (§3) The H3122 parental and LDKR1-4 cell lines were each grown in culture with or without the addition of Ceritinib for 24 hours, and harvested cells were subsequently processed for both proteomic and phosphoproteomic analyses. Specifically, each of the cell lines was cultured in RPMI-1640 media supplemented with 10% FBS, 100 units/mL penicillin, and 100 μg/mL streptomycin. Cells were treated for 24 hours with 300 nM Ceritinib (also known as LDK378). Cells were collected, and the cell pellets were resuspended in mammalian lysis buffer and lysed by passage through a 21 gauge needle. The lysate was centrifuged at 15,000×g for 5 minutes at 4° C., and insoluble debris was discarded.
(§4) The lysates were then prepared for mass spectrometry analysis. Samples were reduced with DTT, alkylated with iodoacetamide, and precipitated with methanol/chloroform. Protein was digested overnight at room temperature with endoproteinase Lys-C(obtained from Wako Chemicals, Richmond, VA) followed by digestion with sequencing-grade trypsin (obtained from Promega Corp., Madison, WI) for 6 hours at 37° C. Samples were quenched with 1% TFA and desalted using Sep-Pak C18 (SPE) cartridges (obtained from Waters Corp., Milford, MA). The peptide concentration of each sample was determined using a BCA assay. […]

ALK [4] = biological target: T1, ALK; assay: Phosphoproteomic analysis of ALK activity after Ceritinib treatment, resistant cell lines; conditions: LDKR1-4, 300 nM Ceritinib, 24 hours
Procedure: as §3, §4

Cc1cc(Nc2ncc(Cl)c(Nc3ccccc3S(=O)(=O)C(C)C)n2)c(OC(C)C)cc1C1CCNCC1 [Ceritinib]
IC50 [1]: 53 nM
IC50 ([2]; Homo sapiens, NCI-H3122, resistant clones LDKR1-4, obtained after 6 months of escalating doses of Ceritinib): 1490 to 3900 nM
IC50 of resistant clones relative to parental sensitive cell line ([2]; four single resistant clones LDKR1-4 vs parental H3122): at least twenty times higher
ALK Thr 1506/Tyr 1507/Ser 1509 phosphorylation, ratio to parental cell line with no drug (ALK [3]): decreasing fourfold upon drug treatment
ALK Tyr 1078 phosphorylation, ratio to parental cell line with no drug (ALK [3]): decreased upon drug treatment
Inhibition of ALK activity in resistant cell lines (ALK [4]): continued to be effective at inhibiting ALK activity in at least three of the four resistant cell lines

— patent publication US20230324400A1, “MULTIPLEXED PROTEOMICS AND PHOSPHOPROTEOMICS” (The General Hospital Corporation, priority 2015, published 2023)
